Experimental data as given in US20240150423A1, “GLP-1 ANALOGUE-MODIFIED DIMERS WITH DIFFERENT CONFIGURATIONS, PREPARATION METHOD THEREOF, AND APPLICATION THEREOF IN TREATMENT OF TYPE II DIABETES” (Nanjing Finepeptide Biopharmaceutical Co.,Ltd, priority 2019, published 2024).

Columns and labels:
[1] = T2D model treatment: body weight and organ weights; format: in vivo, C57B16/J mice; details: 2G3 study, 35 days
Experimental: C57B16/J mice were placed in an SPF-level environment with a standard diet. All experimental operations were performed in accordance with the guidelines of the ethics and uses of experimental animals. […] The NaCl-PB group served as blank control and the model control group served as the T2D model control. They were injected with NaCl-PB solution. The T2D model group was fed with 60 kcal % high-fat diet (D12492, Changzhou SYSE Bio-tech. Co., Ltd., China) until the end of the experiment. Meanwhile the blank control group maintained standard diet. […] These groups were subjected to a 35-day treatment study on the basis of the high-fat diet. • 1. […] The monomeric peptides were dissolved into a saline solution (pH 6.5) for injection. • 2. […] The models were measured blood glucose at the tail and weight weighted every morning at 9 am. […] In the T2D treatment study, all T2D model mice were injected subcutaneously at the back hip in 100 μl per mouse within 30 min. The blood glucose of the experimental mice was measured every five days and the whole measurement was completed within 40 min. […] No. 8-9695-03-201-1, Novo Nordisk company, Switzerland) until the end of the 35-day experiment. • 3.

KM mice = assay: Hypoglycemia test in fasted KM mice at multiples of the low dose; format: in vivo; details: 8 and 68 times of low dose, KM mice fasted for 13 hour, within 3 hours after the administration
[2] = high dose 3.378 nmol/100 μL once a day
[3] = low dose 0.375 nmol/100 μL once a day
[4] = medium dose and Liraglutide group 1.126 nmol/100 μL once a day

## CCCCCCCCCCCCCCCC(=O)N[C@@H](CCC(=O)NCCCC[C@H](NC(=O)[C@H](C)NC(=O)[C@H](C)NC(=O)[C@H](CCC(N)=O)NC(=O)CNC(=O)[C@H](CCC(=O)O)NC(=O)[C@H](CC(C)C)NC(=O)[C@H](Cc1ccc(O)cc1)NC(=O)[C@H](CSSC[C@H](NC(=O)[C@H](CO)NC(=O)[C@@H](NC(=O)[C@H](CC(=O)O)NC(=O)[C@H](CO)NC(=O)[C@@H](NC(=O)[C@H](Cc1ccccc1)NC(=O)[C@@H](NC(=O)CNC(=O)[C@H](CCC(=O)O)NC(=O)[C@H](C)NC(=O)[C@@H](N)Cc1c[nH]cn1)[C@@H](C)O)[C@@H](C)O)C(C)C)C(=O)N[C@@H](Cc1ccc(O)cc1)C(=O)N[C@@H](CC(C)C)C(=O)N[C@@H](CCC(=O)O)C(=O)NCC(=O)N[C@@H](CCC(N)=O)C(=O)N[C@@H](C)C(=O)N[C@@H](C)C(=O)N[C@@H](CCCCNC(=O)CC[C@H](NC(=O)CCCCCCCCCCCCCCC)C(=O)O)C(=O)N[C@@H](CCC(=O)O)C(=O)N[C@@H](Cc1ccccc1)C(=O)N[C@H](C(=O)N[C@@H](C)C(=O)N[C@@H](Cc1c[nH]c2ccccc12)C(=O)N[C@@H](CC(C)C)C(=O)N[C@H](C(=O)N[C@@H](CCCNC(=N)N)C(=O)NCC(=O)N[C@@H](CCCNC(=N)N)C(=O)NCC(=O)O)C(C)C)[C@@H](C)CC)NC(=O)[C@H](CO)NC(=O)[C@@H](NC(=O)[C@H](CC(=O)O)NC(=O)[C@H](CO)NC(=O)[C@@H](NC(=O)[C@H](Cc1ccccc1)NC(=O)[C@@H](NC(=O)CNC(=O)[C@H](CCC(=O)O)NC(=O)[C@H](C)NC(=O)[C@@H](N)Cc1c[nH]cn1)[C@@H](C)O)[C@@H](C)O)C(C)C)C(=O)N[C@@H](CCC(=O)O)C(=O)N[C@@H](Cc1ccccc1)C(=O)N[C@H](C(=O)N[C@@H](C)C(=O)N[C@@H](Cc1c[nH]c2ccccc12)C(=O)N[C@@H](CC(C)C)C(=O)N[C@H](C(=O)N[C@@H](CCCNC(=N)N)C(=O)NCC(=O)N[C@@H](CCCNC(=N)N)C(=O)NCC(=O)O)C(C)C)[C@@H](C)CC)C(=O)O [2G3 series 20]
[1]; [2]
  Weight of organs, Heart: 0.1235 ± 0.02 g
  Weight of organs, Left kidney: 0.1661 ± 0.02 g
  Weight of organs, Left testis: 0.1070 ± 0.01 g
  Weight of organs, Liver: 1.023 ± 0.12b*c* g
  Weight of organs, Lung: 0.1523 ± 0.02 g
  Weight of organs, Pancreas: 0.3202 ± 0.07 g
  Weight of organs, Right kidney: 0.1640 ± 0.02 g
  Weight of organs, Right testis: 0.1060 ± 0.01c* g
  Weight of organs, Spleen: 0.0763 ± 0.01 g
  Weight of organs, adipose tissue: 1.0047 ± 0.30b* g
[1]; [3]
  Weight of organs, Heart: 0.1199 ± 0.01 g
  Weight of organs, Left kidney: 0.1703 ± 0.02 g
  Weight of organs, Left testis: 0.1065 ± 0.01 g
  Weight of organs, Liver: 1.138 ± 0.18a*c** g
  Weight of organs, Lung: 0.1565 ± 0.02 g
  Weight of organs, Pancreas: 0.3329 ± 0.05b* g
  Weight of organs, Right kidney: 0.1648 ± 0.02 g
  Weight of organs, Right testis: 0.1085 ± 0.01c* g
  Weight of organs, Spleen: 0.0794 ± 0.02 g
  Weight of organs, adipose tissue: 1.2216 ± 0.41a*c* g
[1]; [4]
  Weight of organs, Heart: 0.1207 ± 0.01 g
  Weight of organs, Left kidney: 0.1750 ± 0.02c* g
  Weight of organs, Left testis: 0.1041 ± 0.01 g
  Weight of organs, Liver: 1.048 ± 0.06a*b*c *** g
  Weight of organs, Lung: 0.1429 ± 0.02 g
  Weight of organs, Pancreas: 0.3115 ± 0.03 g
  Weight of organs, Right kidney: 0.1617 ± 0.01 g
  Weight of organs, Right testis: 0.1052 ± 0.01c* g
  Weight of organs, Spleen: 0.0807 ± 0.01a* g
  Weight of organs, adipose tissue: 1.0369 ± 0.44b* g
KM mice
  hypoglycemia: did not induce any one of 6 KM mice fasted for 13 hour to produce hypoglycemia
